From patent US20080206367A1, “Morinda Citrifolia-based Formulations and Methods for Weight Management” (priority 2004, published 2008)

Molecular target: T1, CCK1 receptor (Rattus norvegicus, UniProt P30551)
T1 construct: from tissue; host or cells: live male rats (in vivo; gastrointestinal tract)
T1 sequence (P30551 1-444): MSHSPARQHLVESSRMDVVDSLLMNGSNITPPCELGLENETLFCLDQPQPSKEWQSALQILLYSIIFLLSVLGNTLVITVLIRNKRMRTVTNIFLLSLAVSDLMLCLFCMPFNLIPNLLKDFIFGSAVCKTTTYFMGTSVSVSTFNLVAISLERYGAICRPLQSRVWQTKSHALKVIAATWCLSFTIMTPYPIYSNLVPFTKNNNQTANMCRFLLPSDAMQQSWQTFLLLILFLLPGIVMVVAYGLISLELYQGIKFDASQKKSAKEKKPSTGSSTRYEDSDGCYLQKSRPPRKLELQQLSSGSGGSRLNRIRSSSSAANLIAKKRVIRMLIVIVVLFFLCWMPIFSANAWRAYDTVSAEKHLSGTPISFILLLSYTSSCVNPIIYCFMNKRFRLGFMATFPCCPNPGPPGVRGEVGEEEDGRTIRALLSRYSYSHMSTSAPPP
Assay: Effects of lorglumide on noni-mediated inhibition of gastric emptying and intestinal transit
Type: in vivo
Conditions: lorglumide i.p. 15 min before test meal, rats given noni 1 ml/kg orally for 7 days
Procedure: Male rats were divided into four groups and fasted for 24 h before use. Fifteen min before gastric intubation of a non-nutrient liquid meal, the animals were injected i.p. with the following compounds in 1 ml/kg: group 1 received dimethyl sulfoxide (DMSO), […], respectively. Groups 2-4 received 1 ml/kg of noni orally once daily for 7 days.
Gastric emptying and intestinal transit were measured. Rats were intubated via a catheter with physiological saline (3 ml/kg) containing Na2^51CrO4 (0.5 μCi/ml) and 10% charcoal. The test meal was continuously stirred before intubation. Air (0.5 ml) was injected to flush the residual charcoal suspension in the catheter into rat stomach. Fifteen minutes later, the rats were decapitated and the stomach with the attached small intestine was immediately exposed by laparotomy. […] The small intestine was then divided into ten equal segments, and the radioactivity in the stomach and each segment of small intestine was measured in an automatic gamma counter. Gastric emptying was measured by determining the amount of labeled chromium contained in the small intestine fifteen minutes after intubation, expressed as a percentage of the amount given. Intestinal transit was assessed by calculating the geometric center of distribution of the radioactivity within the 10 segments by summation of the radioactivity in each segment multiplied by the segment number.

Noni-induced inhibition of intestinal transit: not altered | Noni-induced inhibition of gastric emptying (P<0.01): significantly prevented
Structure (SMILES): CCCCCN(CCCCC)C(=O)C(CCC(=O)O)NC(=O)c1ccc(Cl)c(Cl)c1 (centres unmarked) [lorglumide]
